Like-named read-outs stand apart in the source and are kept apart here.
Columns and labels:
[1] = Probability of Ingredient Color Instability; format: physicochemical; details: for Comment Code: Probability of Ingredient Color Instability: codes E/F of the Comment Code, Table 1
[2] = Liquid dish neat product liquid-air partition coefficient; format: physicochemical
[3] = class code letter within Comment Code
[4] = codes K/L of the Comment Code, Table 1

SMILES | Probability of Ingredient Color Instability (Comment Code E/F) [1, 3] | Probability of Ingredient Color Instability (Comment Code E/F) [1] | other results
CC(C)=CCCC1=CCC(C=O)CC1 (stereo not shown) [Material 211] | F (Probability of Ingredient Color Instability<71%) |  | Log of liquid dish neat product liquid-air partition coefficient (Comment Code K/L) [2, 3]: K (Log of liquid dish neat product liquid-air partition coefficient greater than or equal to −7)
CC(C)CCCC(C)CCCC(C)C=O (stereo not shown) [Material 741] |  | F (Probability of Ingredient Color Instability<71%) | Log of liquid dish neat product liquid-air partition coefficient (Comment Code K/L) [2]: K (Log of liquid dish neat product liquid-air partition coefficient greater than or equal to −7)
CC(C)=CCCC1=CCC(C)(C=O)CC1 (stereo not shown) [Material 727] |  | F (Probability of Ingredient Color Instability<71%) | Log of liquid dish neat product liquid-air partition coefficient (Comment Code K/L) [2]: K (Log of liquid dish neat product liquid-air partition coefficient greater than or equal to −7)
CCCCCCCC/C=C\CC=O [Material 884] |  | F (Probability of Ingredient Color Instability<71%) | Log of liquid dish neat product liquid-air partition coefficient (Comment Code K/L) [2]: K (Log of liquid dish neat product liquid-air partition coefficient greater than or equal to −7)
CC1=CCCC(C)(C)C12CCC(C)O2 (stereo not shown) [Material 1057] |  | F (Probability of Ingredient Color Instability<71%) | 
CC1=C(CCC(C)C=O)C(C)(C)CCC1 (stereo not shown) [Material 560] | F (Probability of Ingredient Color Instability<71%) |  | Log of liquid dish neat product liquid-air partition coefficient (Comment Code K/L) [2, 3]: K (Log of liquid dish neat product liquid-air partition coefficient greater than or equal to −7)
CC=CC(=O)OC(C)C1CCCCC1 (stereo not shown) [Material 475] | F (Probability of Ingredient Color Instability<71%) |  | Log of liquid dish neat product liquid-air partition coefficient (Comment Code K/L) [2, 3]: K (Log of liquid dish neat product liquid-air partition coefficient greater than or equal to −7)
C/C=C/CCC1CCCC(=O)O1 (stereo not shown) [Material 187] | F (Probability of Ingredient Color Instability<71%) |  | 
CCCCCCCCCCCCCC=O [Material 36] | F (Probability of Ingredient Color Instability<71%) |  | Log of liquid dish neat product liquid-air partition coefficient (Comment Code K/L) [2, 3]: K (Log of liquid dish neat product liquid-air partition coefficient greater than or equal to −7)
CCCCCCCC(C)=O [Material 840] |  | F (Probability of Ingredient Color Instability<71%) | 
CCCCCC1C(=O)CCC1C (stereo not shown) [Material 1053] |  | F (Probability of Ingredient Color Instability<71%) | 
COC(=O)c1ccccc1N=CC(C)Cc1ccc(C(C)(C)C)cc1 (stereo not shown) [Material 1121] |  |  | Comment Code: Probability of Ingredient Color Instability [1]: F (Probability of Ingredient Color Instability<71%)
O=C1CCCCCCCCCCCC(=O)OCCO1 [Material 378] | F (Probability of Ingredient Color Instability<71%) |  | 
CC(C)=CCCC(C)=CCOC(=O)Cc1ccccc1 [Material 300] | F (Probability of Ingredient Color Instability<71%) |  | 
CC(C)=CCCC(C)CCCC(C)C=O (stereo not shown) [Material 757] |  | F (Probability of Ingredient Color Instability<71%) | Log of liquid dish neat product liquid-air partition coefficient (Comment Code K/L) [2]: K (Log of liquid dish neat product liquid-air partition coefficient greater than or equal to −7)
C=CC(C)(O)CCC=C(C)CCC=C(C)CCC=C(C)C (stereo not shown) [Material 303] | F (Probability of Ingredient Color Instability<71%) |  | 
CC=Cc1ccc(OCc2ccccc2)c(OC)c1 [Material 212] | F (Probability of Ingredient Color Instability<71%) |  | 
C=CCc1ccc(OC(C)=O)c(OC)c1 [Material 374] | F (Probability of Ingredient Color Instability<71%) |  | Log of liquid dish neat product liquid-air partition coefficient (Comment Code K/L) [2, 3]: K (Log of liquid dish neat product liquid-air partition coefficient greater than or equal to −7)
CCCCCCCCCC(C)=O [Material 102] | F (Probability of Ingredient Color Instability<71%) |  | 
O=CCCC=C1CC2CC1C1CCCC21 (stereo not shown) [Material 418] | F (Probability of Ingredient Color Instability<71%) |  | Log of liquid dish neat product liquid-air partition coefficient (Comment Code K/L) [2, 3]: K (Log of liquid dish neat product liquid-air partition coefficient greater than or equal to −7)
CCOC(=O)C1OC1(C)c1ccccc1 (stereo not shown) [Material 377] | F (Probability of Ingredient Color Instability<71%) |  | Log of liquid dish neat product liquid-air partition coefficient (Comment Code K/L) [2, 3]: K (Log of liquid dish neat product liquid-air partition coefficient greater than or equal to −7)
C=CC(C)(CCC=C(C)C)OC(=O)c1ccccc1N (stereo not shown) [Material 153] | F (Probability of Ingredient Color Instability<71%) |  | 
CC1=C2CC(C(C)(C)O)CCC2(C)CCC1 (stereo not shown) [Material 329] | F (Probability of Ingredient Color Instability<71%) |  | Log of liquid dish neat product liquid-air partition coefficient (Comment Code K/L) [2, 3]: K (Log of liquid dish neat product liquid-air partition coefficient greater than or equal to −7); Comment Code: Log of liquid dish neat product liquid-air partition coefficient ([2]; code letters K, L): K (Log of liquid dish neat product liquid-air partition coefficient greater than or equal to −7)
C=C(C)C1CC=C(COC(C)=O)CC1 (stereo not shown) [Material 947] |  | F (Probability of Ingredient Color Instability<71%) | Log of liquid dish neat product liquid-air partition coefficient (Comment Code K/L) [2]: K (Log of liquid dish neat product liquid-air partition coefficient greater than or equal to −7)

SMILES | Probability of Ingredient Color Instability (Comment Code E/F) [1, 3] | Probability of Ingredient Color Instability (Comment Code E/F) [1] | other results
COc1ccc(COC(=O)Cc2ccccc2)cc1 [Material 663] |  | F (Probability of Ingredient Color Instability<71%) | 
CC1COC(C)(c2ccc3c(c2)C(C)(C)CCC3(C)C)O1 (stereo not shown) [Material 2] | F (Probability of Ingredient Color Instability<71%) |  | 
CCCCCC1C(=O)CCC1CC(=O)OC (stereo not shown) [Material 113] | F (Probability of Ingredient Color Instability<71%) |  | Log of liquid dish neat product liquid-air partition coefficient (Comment Code K/L) [2, 3]: K (Log of liquid dish neat product liquid-air partition coefficient greater than or equal to −7)
Cc1ccc(OC(=O)Cc2ccccc2)cc1 [Material 998] |  | F (Probability of Ingredient Color Instability<71%) | 
CC(C=O)=CCC1C(C)=CCCC1(C)C (stereo not shown) [Material 1116] |  |  | Comment Code: Probability of Ingredient Color Instability [1]: F (Probability of Ingredient Color Instability<71%); Comment Code: Log of liquid dish neat product liquid-air partition coefficient [2, 4]: K (Log of liquid dish neat product liquid-air partition coefficient greater than or equal to −7)
CC1CC(C)(c2ccccc2)OC(C)O1 (stereo not shown) [Material 1126] |  |  | Comment Code: Probability of Ingredient Color Instability [1]: F (Probability of Ingredient Color Instability<71%); Comment Code: Log of liquid dish neat product liquid-air partition coefficient [2, 4]: K (Log of liquid dish neat product liquid-air partition coefficient greater than or equal to −7)
CC1(C)C2CC=C(C=O)C1C2 (stereo not shown) [Material 70] | F (Probability of Ingredient Color Instability<71%) |  | 
O=C1CCCCCCCCCCC(=O)OCCO1 [Material 485] | F (Probability of Ingredient Color Instability<71%) |  | 
CC1(C)C2CC=C(CC=O)C1C2 (stereo not shown) [Material 973] |  | F (Probability of Ingredient Color Instability<71%) | 
CC1=CCC(C23CCCC(C)(C2)OC3)C1(C)C (stereo not shown) [Material 571] |  | F (Probability of Ingredient Color Instability<71%) | 
O=C(OC1CCCCC1)c1ccccc1O [Material 482] | F (Probability of Ingredient Color Instability<71%) |  | 
COc1c2ccoc2c(OC)c2oc(=O)ccc12 [Material 199] | F (Probability of Ingredient Color Instability<71%) |  | 
CCC(C)(C)C1CCC(=O)CC1 [Material 21] | F (Probability of Ingredient Color Instability<71%) |  | 
CCCCCCC(=O)CC [Material 394] | F (Probability of Ingredient Color Instability<71%) |  | 
CCC(C)CCCC(C)C=O (stereo not shown) [Material 866] |  | F (Probability of Ingredient Color Instability<71%) | 
COC(=O)c1ccccc1NC(O)CC(C)c1ccccc1 (stereo not shown) [Material 1093] |  | F (Probability of Ingredient Color Instability<71%) | 
O=CC1CCC2C3CCC(C3)C12 (stereo not shown) [Material 130] | F (Probability of Ingredient Color Instability<71%) |  | 
CCCCCCCC1CCCC1=O (stereo not shown) [Material 362] | F (Probability of Ingredient Color Instability<71%) |  | 
C=CC(C)(CCC=C(C)C)OC(=O)c1ccccc1 (stereo not shown) [Material 152] | F (Probability of Ingredient Color Instability<71%) |  | 
CC1=CC(C)C(C=O)C(C)C1 (stereo not shown) [Material 218] | F (Probability of Ingredient Color Instability<71%) |  | 
CCCCCCC1=CCCC1=O [Material 209] | F (Probability of Ingredient Color Instability<71%) |  | 
CCCCCC=C1CCCC1=O [Material 850] |  | F (Probability of Ingredient Color Instability<71%) | 
CCC(=O)OCC(=O)OC(C)C1CCCC(C)(C)C1 (stereo not shown) [Material 1009] |  | F (Probability of Ingredient Color Instability<71%) | 
